The results in this text go back to patent US20240294543A1, “CYCLOHEPTA-THIENO-DIAZEPINE DERIVATIVES AS GABA A GAMMA1 PAM” (Hoffmann-La Roche Inc., priority 2021, published 2024).

Test [1] deals with human GABAA α2β2γ1 receptor (Homo sapiens (Human), UniProt P47869+Q8N1C3). Briefly: Radioligand binding assay, competition for [3H]RO7239181, γ1-containing GABAA subtypes. The conditions noted are these: Ki h-GABAA α2β2γ1, membranes of HEK293F cells, [3H]RO7239181 20-30 nM. Here is the method:
The affinity of compounds at GABAA γ1 subunit-containing receptors was measured by competition for [^3H]RO7239181 (67.3 Ci/mmol; Roche) binding to membranes from HEK293F cells (ThermoFisher R79007) expressing human (transiently transfected) receptors of composition α5β2γ1, α2β2γ1, α1β2γ1.
Harvested pellets from HEK293F cells expressing the different GABAA receptor subtypes were resuspended in Mannitol Buffer pH 7.2-7.4 (Mannitol 0.29 M, Triethylamine 10 mM, Acetic acid 10 mM, EDTA 1 mM plus protease inhibitors (20 tablets Complete, Roche Diagnostics Cat. No. 05 056 489 001 per liter)), washed two times and then resuspended at 1:10 to 1:15 dilution in the same buffer. Cell disruption was performed by stirring the suspension in a Parr vessel #4637 at 435 psi for 15 minutes, and then the suspensions were centrifuged at 1000×g for 15 minutes at 4° C. (Beckman Avanti J-HC; rotor JS-4.2). The supernatant (S1) was transferred in a 21 Schott flask and the pellet (P1) was resuspended with Mannitol Buffer up to 175 ml. The resuspended pellet was transferred into a 250 ml Corning centrifugal beaker and centrifuged at 1500×g for 10 minutes at 4° C. (Beckman Avanti J-HC; rotor JS-4.2). The supernatant (S1) was then transferred in the 21 Schott flask and the pellet was discarded. The supernatants (S1) were centrifuged in 500 ml Beckman polypropylene centrifugal beaker at 15'000×g for 30 minutes at 4° C. (Beckman Avanti J-20 XP; rotor JLA-10.500). The pellet (P2) was resuspended with Mannitol Buffer 1:1 and frozen at −80° C. The supernatant (S2) was centrifuged in 100 ml Beckman polypropylene centrifugal tubes at 48000×g for 50 minutes at 4° C. (Beckman Avanti J-20 XP; rotor JA-18). The supernatant (S3) was discarded and the pellet (P3) was resuspended with 1:1 Mannitol Buffer. The P2 and P3 protein concentration was determined with the BIORAD Standard assay method with bovine serum albumin as standard and measured on the NANO-Drop 1000. The membrane suspension was aliquots (500 μl per tube) and stored at −80° C. until required.
Membrane homogenates were resuspended and polytronised (Polytron PT1200E Kinematica AG) in Potassium Phosphate 10 mM, KCl 100 mM binding buffer at pH 7.4 to a final assay concentration determined with a previous experiment.
Assays were incubated to equilibrium for 1 hour at 4° C. and then, membranes were filtered onto unifilter (96-well white microplate with bonded GF/C filters preincubated 20-50 minutes in 0.3% Polyethylenimine) with a Filtermate 196 harvester (Packard BioScience) and washed 4 times with cold Potassium Phosphate 10 mM pH 7.4, KCl 100 mM binding buffer. After anhydrousing, filter-retained radioactivity was detected by liquid scintillation counting. Ki values were calculated using Excel-Fit (Microsoft) and are the means of two determinations.

Test [2] concerns the target human GABAA α1β3γ2 receptor (Homo sapiens (Human), UniProt P14867+P18507). The test is described as follows: Radioligand binding assay, competition for [3H]Flumazenil, γ2-containing GABAA subtypes. To be noted: for γ2/γ1 Selectivity Ratio: Ki α1β3γ2 (nM)/Ki α2β2γ1 (nM); for LogSel: Log[Ki α1β3γ2 (nM)/Ki α2β2γ1 (nM)]. As for the experimental part: The affinity of compounds at GABAA γ2 subunit-containing receptors was measured by competition for [^3H]Flumazenil (81.1 Ci/mmol; Roche) binding to HEK293F cells expressing human (transiently transfected) receptors of composition α1β3γ2.
Harvested pellets from HEK293F cells expressing the different GABAA γ2 receptor subtypes were resuspended in Mannitol Buffer pH 7,2-7,4 and processed as described above for the cells expressing the GABAA γ1 subunit-containing receptors.
Assays were incubated to equilibrium for 1 hour at 4° C. and harvested onto GF/C uni-filters (Packard) by filtration using a Packard harvester and washing with ice-cold wash buffer (50 mM Tris; pH 7.5). After anhydrousing, filter-retained radioactivity was detected by liquid scintillation counting. Ki values were calculated using Excel-Fit (Microsoft) and are the means of two determinations.

Where [3] appears, read: HEK293F cells, [3H]Flumazenil 1 nM, Table 1, read-out: Ki h-GABAA α1β3γ2.

Where two headings read alike, the source gives them in different places.

For `Cc1nc2n(n1)-c1sc3c(c1C(c1c(F)cccc1F)=N[C@H]2C)COCCC3` [Example 57, (7S)-9-(2,6-difluorophenyl)-4,7-dimethyl-13-oxa-18-thia-2,3,5,8-tetrazatetracyclo[8.8.0.02,6.011,17]octadeca-1(10),3,5,8,11(17)-pentaene], the inhibition constant (Ki) in test [1] (Table 1) worked out at 7.3 nM; in test [1] (Table 2), 7.3 nM; in test [2] it was 4520 nM. Moreover, in test [2] (Table 1), the “γ2/γ1 Selectivity Ratio” value turned out to be 615.2. The same molecule displayed a LogSel in test [2] (Table 1) of 2.79.

`C[C@@H]1N=C(c2c(F)cccc2F)c2c(sc3c2COCCC3)-n2nc(C(=O)N[C@H]3C[C@@H](O)C3)nc21` [Example 64, (7S)-9-(2,6-difluorophenyl)-N-(cis-3-hydroxycyclobutyl)-7-methyl-13-oxa-18-thia-2,3,5,8-tetrazatetracyclo[8.8.0.02,6.011,17]octadeca-1(10),3,5,8,11(17)-pentaene-4-carboxamide]: the results for the Ki in test [1] (Table 1), in test [1] (Table 2) and in test [2] (setting [3]) were 56.2 nM, 56.2 nM and 7870 nM, respectively. The “γ2/γ1 Selectivity Ratio” value in test [2] (Table 1) was 139.9. The molecule also gave a LogSel in test [2] (Table 1) of 2.15.

For `CC(C)c1nnc2n1-c1sc3c(c1C(c1c(F)cccc1F)=N[C@H]2C)COCCO3` [Example 44, (7S)-9-(2,6-difluorophenyl)-3-isopropyl-7-methyl-13,16-dioxa-18-thia-2,4,5,8-tetrazatetracyclo[8.8.0.02,6.011,17]octadeca-1(10),3,5,8,11(17)-pentaene], the values for the Ki in test [1] (Table 1), in test [1] (Table 2) and in test [2] were 29 nM, 29 nM and 6390 nM, respectively. The “γ2/γ1 Selectivity Ratio” value in test [2] (Table 1) stood at 220.4. In test [2] (Table 1), the LogSel is on record as 2.34.

On to `CCc1nc2n(n1)-c1sc3c(c1C(c1c(F)cccc1F)=N[C@H]2C)COC[C@H](C)O3` [Example 49, (7S,15S)-9-(2,6-difluorophenyl)-4-ethyl-7,15-dimethyl-13,16-dioxa-18-thia-2,3,5,8-tetrazatetracyclo[8.8.0.02,6.011,17]octadeca-1(10),3,5,8,11(17)-pentaene], for which the Ki in test [1] (Table 1) was found to be 52.5 nM; in test [1] (Table 2) it was 52.5 nM; in test [2], 8750 nM. Also, in test [2] (Table 1), the “γ2/γ1 Selectivity Ratio” value amounted to 166.8. For the same molecule, the LogSel in test [2] (Table 1) is listed as 2.22.

`Cc1cn2c(nc1=O)[C@H](C)N=C(c1c(F)cccc1F)c1c-2sc2c1CCCCC2` [Example 26, (8S)-10-(2,6-difluorophenyl)-4,8-dimethyl-19-thia-2,6,9-triazatetracyclo[9.8.0.02,7.012,18]nonadeca-1(11),3,6,9,12(18)-pentaen-5-one]: the figures for the Ki in test [1] (Table 1), in test [1] (Table 2) and in test [2] were 32 nM, 32 nM and 6040 nM, respectively. In addition, in test [2] (Table 1), the “γ2/γ1 Selectivity Ratio” value was found to be 188.9. The same molecule displayed a LogSel in test [2] (Table 1) of 2.28.

Regarding `Cc1nnc2n1-c1sc3c(c1C(c1c(F)cccc1F)=N[C@H]2C)CC[C@@H](O)CC3` [Example 27, (7S,14R)-9-(2,6-difluorophenyl)-3,7-dimethyl-18-thia-2,4,5,8-tetrazatetracyclo[8.8.0.02,6.011,17]octadeca-1(10),3,5,8,11(17)-pentaen-14-ol], the results for the Ki in test [1] (Table 1), in test [1] (Table 2) and in test [2] were 42.8 nM, 42.8 nM and 11400 nM, respectively. In test [2] (Table 1), the “γ2/γ1 Selectivity Ratio” value was 266.4. The molecule also came in with a LogSel in test [2] (Table 1) of 2.43.

Regarding `CCc1nnc2n1-c1sc3c(c1C(c1c(F)cccc1F)=N[C@H]2C)COCCO3` [Example 42, (7S)-9-(2,6-difluorophenyl)-3-ethyl-7-methyl-13,16-dioxa-18-thia-2,4,5,8-tetrazatetracyclo[8.8.0.02,6.011,17]octadeca-1(10),3,5,8,11(17)-pentaene], the Ki in test [1] (Table 1) turned out to be 31.7 nM; in test [1] (Table 2), 31.7 nM; in test [2], 4270 nM. Moreover, in test [2] (Table 1), the “γ2/γ1 Selectivity Ratio” value is recorded as 134.9. The molecule further displayed a LogSel in test [2] (Table 1) of 2.13.

Consider `C[C@@H]1N=C(c2c(F)cccc2F)c2c(sc3c2COCCO3)-n2cc(C(=O)NCC3(O)CC3)nc21` [Example 65, (7S)-9-(2,6-difluorophenyl)-N-[(1-hydroxycyclopropyl)methyl]-7-methyl-13,16-dioxa-18-thia-2,5,8-triazatetracyclo[8.8.0.02,6.011,17]octadeca-1(10),3,5,8,11(17)-pentaene-4-carboxamide], for which the results for the Ki in test [1] (Table 1), in test [1] (Table 2) and in test [2] (setting [3]) were 23.1 nM, 23.1 nM and 1240 nM, respectively. For the same molecule, the “γ2/γ1 Selectivity Ratio” value in test [2] (Table 1) came to 53.8. In addition, the LogSel in test [2] (Table 1) came to 1.73.

With `C[C@@H]1N=C(c2c(F)cccc2F)c2c(sc3c2COCCO3)-n2c(C(F)F)nnc21` [Example 48, (7S)-3-(difluoromethyl)-9-(2,6-difluorophenyl)-7-methyl-13,16-dioxa-18-thia-2,4,5,8-tetrazatetracyclo[8.8.0.02,6.011,17]octadeca-1(10),3,5,8,11(17)-pentaene], the Ki is 47.9 nM in test [1] (Table 1), 47.9 nM in test [1] (Table 2) and more than 30000 nM in test [2]. In addition, the “γ2/γ1 Selectivity Ratio” value in test [2] (Table 1) is recorded as 626.6. The LogSel in test [2] (Table 1) is listed as 2.80.

For `C[C@@H]1N=C(c2c(F)cccc2F)c2c(sc3c2COC[C@H](C)O3)-n2nc(C(=O)N3CC(OC(C)(C)C)C3)nc21` [Example 41, (3-tert-butoxyazetidin-1-yl)-[(7S,15S)-9-(2,6-difluorophenyl)-7,15-dimethyl-13,16-dioxa-18-thia-2,3,5,8-tetrazatetracyclo[8.8.0.02,6.011,17]octadeca-1(10),3,5,8,11(17)-pentaen-4-yl]methanone], the Ki in test [1] (Table 1) is 65.1 nM; in test [1] (Table 2) it was 65.1 nM; in test [2] (setting [3]) it was 12300 nM. Besides, the “γ2/γ1 Selectivity Ratio” value in test [2] (Table 1) is 188.2. Further, in test [2] (Table 1), the LogSel is recorded as 2.27.

For `C[C@@H]1N=C(c2c(F)cccc2F)c2c(sc3c2CCCCC3)-n2c(C3CC3)nnc21` [Example 3, (7S)-3-cyclopropyl-9-(2,6-difluorophenyl)-7-methyl-18-thia-2,4,5,8-tetrazatetracyclo[8.8.0.02,6.011,17]octadeca-1(10),3,5,8,11(17)-pentaene], the inhibitory constant (Ki) in test [1] (Table 1) is 26.6 nM; in test [1] (Table 2), 26.7 nM; in test [2], 1360 nM. In test [2] (Table 1), the “γ2/γ1 Selectivity Ratio” value stood at 51.0. This molecule returned a LogSel in test [2] (Table 1) of 1.71.

Regarding `C[C@@H]1N=C(c2c(F)cccc2F)c2c(sc3c2COCCO3)-n2nc(C(=O)NC3CC3)nc21` [Example 36], the inhibition constant Ki worked out at 56.3 nM in test [1] (Table 1), 56.3 nM in test [1] (Table 2) and 4080 nM in test [2] (setting [3]). Also, the “γ2/γ1 Selectivity Ratio” value in test [2] (Table 1) is 72.6. The same molecule had a LogSel in test [2] (Table 1) of 1.86.

Regarding `C[C@@H]1N=C(c2c(F)cccc2F)c2c(sc3c2COCCC3)-n2cc(C(=O)NCCO)nc21` [Example 66, (7S)-9-(2,6-difluorophenyl)-N-(2-hydroxyethyl)-7-methyl-13-oxa-18-thia-2,5,8-triazatetracyclo[8.8.0.02,6.011,17]octadeca-1(10),3,5,8,11(17)-pentaene-4-carboxamide], the inhibition constant Ki in test [1] (Table 1) is 14.7 nM; in test [1] (Table 2), 14.7 nM; in test [2] (setting [3]), 2510 nM. For the same molecule, the “γ2/γ1 Selectivity Ratio” value in test [2] (Table 1) was 170.6. The molecule also came in with a LogSel in test [2] (Table 1) of 2.23.
